Experiments:
Test in all cases: relative viability (nuclei count vs DMSO), 5 days (fraction); higher = more cells survive
[1] = compound: CCN(CCO)CCCC(C)Nc1ccnc2cc(Cl)ccc12 [Hydroxychloroquine] + CC(C)C[C@H](NC(=O)[C@H](Cc1ccccc1)NC(=O)c1cnccn1)B(O)O [Bortezomib] (partner 0.002 µM)
In short: (§1)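 Cells from lung cancer lines were seeded into 1536-well plates and, one day later, dosed by pin tool. Treatments were either a single drug or a fixed dose of an anchor drug with five library-drug doses (not always all listed) in √10 steps. After 5 days, nuclei were stained in a one-step fixation (final 0.05% Triton X-100, 1% formaldehyde, 1 ug/ml Hoechst) and counted on 4× images, and relative viability is the treated-to-vehicle nuclei ratio, as the median of duplicate plates.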

[2] = compound: CCN(CCO)CCCC(C)Nc1ccnc2cc(Cl)ccc12 [Hydroxychloroquine] + CC1(C)CCC(c2ccc(Cl)cc2)=C(CN2CCN(c3ccc(C(=O)NS(=O)(=O)c4ccc(N[C@H](CCN5CCOCC5)CSc5ccccc5)c(S(=O)(=O)C(F)(F)F)c4)cc3)CC2)C1 [Navitoclax] (partner 0.5 µM)
In short: as §1

[3] = compound: CCN(CCO)CCCC(C)Nc1ccnc2cc(Cl)ccc12 [Hydroxychloroquine] + Cc1nc(Nc2ncc(C(=O)Nc3c(C)cccc3Cl)s2)cc(N2CCN(CCO)CC2)n1 [Dasatinib] (partner 0.075 µM)
In short: as §1

[4] = compound: CCN(CCO)CCCC(C)Nc1ccnc2cc(Cl)ccc12 [Hydroxychloroquine] + CCNC(=O)c1noc(-c2cc(C(C)C)c(O)cc2O)c1-c1ccc(CN2CCOCC2)cc1 [Luminespib] (partner 0.01 µM)
In short: as §1

Cell Line | relative viability ([1]; first compound 0.5 µM) | relative viability ([1]; first compound 1.581 µM) | relative viability ([1]; first compound 5 µM) | relative viability ([1]; first compound 15.81 µM) | relative viability ([1]; first compound 50 µM) | relative viability ([2]; first compound 0.5 µM) | relative viability ([2]; first compound 1.581 µM) | relative viability ([2]; first compound 5 µM) | relative viability ([2]; first compound 15.81 µM) | relative viability ([2]; first compound 50 µM) | relative viability ([3]; first compound 0.5 µM) | relative viability ([3]; first compound 1.581 µM) | relative viability ([3]; first compound 5 µM) | relative viability ([3]; first compound 15.81 µM) | relative viability ([3]; first compound 50 µM) | relative viability ([4]; first compound 0.5 µM) | relative viability ([4]; first compound 1.581 µM) | relative viability ([4]; first compound 5 µM) | relative viability ([4]; first compound 15.81 µM) | relative viability ([4]; first compound 50 µM)
NCI-H2085 | 0.987 | 0.94 | 1.24 | 1.07 | 1.1 | 1.03 | 1.04 | 1.25 | 1.03 | 1.2 | 0.274 | 0.267 | 0.223 | 0.274 | 0.232 | 0.612 | 0.44 | 0.447 | 0.416 | 0.413
NCI-H2087 | 0.829 | 0.959 | 0.835 | 0.869 | 1.1 | 0.972 | 0.938 | 1.04 | 1.16 | 1.04 | 0.96 | 0.77 | 0.794 | 0.954 | 0.969 | 0.187 | 0.195 | 0.175 | 0.19 | 0.329
NCI-H2126 | 1.11 | 1.07 | 1.09 | 1.1 | 1.18 | 0.859 | 0.804 | 0.848 | 0.884 | 0.833 | 0.724 | 0.564 | 0.596 | 0.622 | 0.615 | 0.908 | 0.838 | 0.823 | 0.96 | 0.931
NCI-H2228 | 1 | 1.18 | 1 | 1.05 | 1.29 | 0.671 | 0.717 | 1.04 | 0.78 | 1.16 | 0.53 | 0.456 | 0.516 | 0.524 | 0.506 | 0.24 | 0.122 | 0.162 | 0.185 | 0.112
